# Experimental data published in the NIST ThermoML archive (doi:10.1021/je401026a).
# ± gives the expanded uncertainty stated by the source.
# Conditions: 298 K; Liquid; Gas chromatography
smiles,measurement,value
CC(CCl)OP(=O)(OC(C)CCl)OC(C)CCl (stereo unspecified) [tris(1-chloro-2-propyl) phosphate],vapor or sublimation pressure,3.5e-05 ± 1.7e-05 kPa
CCCCC(CC)COP(=O)(OCC(CC)CCCC)OCC(CC)CCCC (stereo unspecified) [tris(2-ethylhexyl) phosphate],vapor or sublimation pressure,2.1e-08 ± 1.8e-08 kPa
CC(C)c1ccccc1OP(=O)(Oc1ccccc1C(C)C)Oc1ccccc1C(C)C [tris(2-(1-methylethyl)-phenol) phosphate],vapor or sublimation pressure,6e-09 ± 9e-09 kPa
"Cc1ccc(OP(=O)(Oc2ccc(C)cc2)Oc2ccc(C)cc2)cc1 [phosphoric acid, tri-p-cresyl ester]",vapor or sublimation pressure,1.1e-08 ± 1.2e-08 kPa
"O=P(OC(CCl)CCl)(OC(CCl)CCl)OC(CCl)CCl [tris(1,3-dichloro-2-propanol) phosphate]",vapor or sublimation pressure,4.1e-07 ± 2.8e-07 kPa
Cc1cccc(OP(=O)(Oc2cccc(C)c2)Oc2cccc(C)c2)c1 [tri-m-tolyl phosphate],vapor or sublimation pressure,2.1e-08 ± 1.8e-08 kPa
CCCCC(CC)COP(=O)(Oc1ccccc1)Oc1ccccc1 (stereo unspecified) [2-ethylhexyl diphenyl phosphate],vapor or sublimation pressure,8.9e-08 ± 6.3e-08 kPa
O=P(OCCCl)(OCCCl)OCCCl [tris(2-chloroethyl) phosphate],vapor or sublimation pressure,4.8e-05 ± 2.2e-05 kPa
O=P(Oc1ccccc1)(Oc1ccccc1)Oc1ccccc1 [triphenyl phosphate],vapor or sublimation pressure,2.7e-07 ± 2e-07 kPa
CCCCOCCOP(=O)(OCCOCCCC)OCCOCCCC [tris(2-butoxyethyl) phosphate],vapor or sublimation pressure,4.9e-08 ± 3.8e-08 kPa
Cc1ccccc1OP(=O)(Oc1ccccc1C)Oc1ccccc1C [tri-2-tolyl phosphate],vapor or sublimation pressure,5.1e-08 ± 2.6e-08 kPa
